For 32 compounds, inhibition, Ki and Ratio Ki results are on record in ChEMBL document CHEMBL4477255, “Charting the chemical space around the (iso)indoline scaffold, a comprehensive approach towards multitarget directed ligands” (Bioorg Med Chem Lett, 2016).

The structures appear in SMILES notation. A value given as a limit tells only on which side of the number the result lay.

Common to all, as to assay type: cell-based
Assay [1] concerns the target T1, 5-hydroxytryptamine receptor 6 (Homo sapiens, UniProt P50406). The assay can be described thus: Displacement of [3H]LSD from human recombinant 5-HT6 receptor expressed in CHO-K1 cells at 1 uM incubated for 3 hrs by scintillation counting analysis.
In assay [2] the target is T2, D(3) dopamine receptor (Homo sapiens, UniProt P35462). Kind of assay: Displacement of [3H]raclopride from human recombinant dopamine D3 receptor expressed in CHO-K1 cells at 1 uM incubated for 120 mins by liquid scintillation counting analysis.
T2 sequence (P35462 whole entry): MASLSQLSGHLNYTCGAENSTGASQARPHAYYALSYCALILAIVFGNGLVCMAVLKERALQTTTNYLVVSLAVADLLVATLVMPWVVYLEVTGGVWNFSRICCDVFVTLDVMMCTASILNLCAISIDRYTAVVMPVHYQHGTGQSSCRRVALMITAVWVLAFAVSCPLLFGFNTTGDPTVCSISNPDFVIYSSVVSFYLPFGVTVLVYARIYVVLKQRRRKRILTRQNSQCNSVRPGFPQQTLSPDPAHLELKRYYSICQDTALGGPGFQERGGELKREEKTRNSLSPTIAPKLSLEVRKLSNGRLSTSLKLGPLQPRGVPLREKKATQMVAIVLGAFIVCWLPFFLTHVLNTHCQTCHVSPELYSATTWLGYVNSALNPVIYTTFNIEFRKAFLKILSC
For assay [3], the target named is T3, D(2) dopamine receptor (Homo sapiens, UniProt P14416). The assay can be described thus: Displacement of [3H]raclopride from human recombinant dopamine D2 long receptor expressed in CHO-K1 cells at 1 uM incubated for 120 mins by scintillation counting analysis. A general note: In a radioligand displacement assay an active substance lowers the binding of a labelled ligand.
T3 sequence (P14416 whole entry): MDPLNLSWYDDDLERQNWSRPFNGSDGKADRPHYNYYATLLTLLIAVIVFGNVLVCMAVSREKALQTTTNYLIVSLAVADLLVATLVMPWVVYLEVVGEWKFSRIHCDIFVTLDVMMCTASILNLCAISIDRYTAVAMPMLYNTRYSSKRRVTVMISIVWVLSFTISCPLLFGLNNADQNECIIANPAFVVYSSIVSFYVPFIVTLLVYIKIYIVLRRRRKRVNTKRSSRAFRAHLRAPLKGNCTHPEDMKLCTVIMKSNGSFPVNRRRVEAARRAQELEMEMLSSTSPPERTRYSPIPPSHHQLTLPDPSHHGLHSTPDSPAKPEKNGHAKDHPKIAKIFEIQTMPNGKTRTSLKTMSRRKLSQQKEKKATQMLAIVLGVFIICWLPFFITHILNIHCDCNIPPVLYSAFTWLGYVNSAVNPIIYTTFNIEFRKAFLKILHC

The next assay addresses Histamine H3 receptor (Homo sapiens, UniProt Q9Y5N1). Kind of assay: Displacement of N-alpha-[methyl-3H]methylhistamine dihydrochloride from human recombinant histamine H3 receptor expressed in CHO-K1 cells at 1 uM incubated for 30 mins by liquid scintillation counting analysis.
For assay [4], the target named is T2, D(3) dopamine receptor. Kind of assay: Displacement of [3H]raclopride from human recombinant dopamine D3 receptor expressed in CHO-K1 cells incubated for 120 mins by liquid scintillation counting analysis.
Assay [5] concerns the target T1, 5-hydroxytryptamine receptor 6. Kind of assay: Displacement of [3H]LSD from human recombinant 5-HT6 receptor expressed in CHO-K1 cells incubated for 3 hrs by scintillation counting analysis.
The species entered for a further assay is Homo sapiens. Kind of assay: Selectivity index, ratio of Ki for human recombinant dopamine D3 receptor expressed in CHO-K1 cells to Ki for dopamine D2 long receptor expressed in CHO-K1 cells.
Assay [6] concerns the target T3, D(2) dopamine receptor. Kind of assay: Displacement of [3H]raclopride from human recombinant dopamine D2 long receptor expressed in CHO-K1 cells incubated for 120 mins by scintillation counting analysis.

T1 sequence (P50406 whole entry): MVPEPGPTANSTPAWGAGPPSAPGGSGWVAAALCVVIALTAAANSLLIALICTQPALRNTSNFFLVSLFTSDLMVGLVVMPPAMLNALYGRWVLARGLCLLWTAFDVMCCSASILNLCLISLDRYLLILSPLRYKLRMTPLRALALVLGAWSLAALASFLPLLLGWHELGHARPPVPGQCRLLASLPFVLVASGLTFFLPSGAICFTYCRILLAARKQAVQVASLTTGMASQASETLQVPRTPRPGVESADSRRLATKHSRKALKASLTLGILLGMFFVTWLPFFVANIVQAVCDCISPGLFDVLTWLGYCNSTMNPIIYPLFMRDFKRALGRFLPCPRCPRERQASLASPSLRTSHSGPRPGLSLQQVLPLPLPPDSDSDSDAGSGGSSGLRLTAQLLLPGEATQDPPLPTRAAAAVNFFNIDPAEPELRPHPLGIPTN
Sequence of Histamine H3 receptor (Q9Y5N1 whole entry): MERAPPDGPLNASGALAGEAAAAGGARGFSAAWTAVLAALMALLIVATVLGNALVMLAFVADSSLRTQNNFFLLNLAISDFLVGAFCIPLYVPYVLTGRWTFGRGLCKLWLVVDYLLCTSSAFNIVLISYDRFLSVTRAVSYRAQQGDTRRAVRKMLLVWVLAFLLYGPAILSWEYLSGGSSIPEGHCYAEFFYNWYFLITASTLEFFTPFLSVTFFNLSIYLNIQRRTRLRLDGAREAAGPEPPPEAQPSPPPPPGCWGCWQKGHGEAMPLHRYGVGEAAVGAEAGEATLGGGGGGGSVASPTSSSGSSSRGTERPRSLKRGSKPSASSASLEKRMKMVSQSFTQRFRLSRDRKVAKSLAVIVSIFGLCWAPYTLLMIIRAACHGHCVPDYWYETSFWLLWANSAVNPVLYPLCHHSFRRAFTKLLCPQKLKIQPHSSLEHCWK

Turning to `CCCN1CCC(c2ccc3c(c2)CCN3S(=O)(=O)c2ccccc2)CC1`, the inhibition was 39% in assay [1], 79% on D(3) dopamine receptor [2], 35% at D(2) dopamine receptor [3] and 22% at Histamine H3 receptor. Moreover, at D(3) dopamine receptor [4], the Ki turned out to be 227 nM.

As to `CN1CCC(c2cccc3c2CCN3S(=O)(=O)c2ccccc2)CC1`, the inhibition worked out at 87% in assay [1], 13% on D(3) dopamine receptor [2], 35% on D(2) dopamine receptor [3] and 10% on Histamine H3 receptor. In addition, the Ki in assay [5] was 45 nM.

For `O=S(=O)(c1ccccc1)N1Cc2ccc(C3CCNCC3)cc2C1`, the inhibition in assay [1] came to 54%; on D(3) dopamine receptor [2] it was 3%; on D(2) dopamine receptor [3] it was 9%; on Histamine H3 receptor, 3%. For the same compound, the Ki in assay [5] was 254 nM.

For the compound `O=S(=O)(c1ccccc1)N1CCc2cc(N3CCNCC3)ccc21`, the inhibition is 90% in assay [1], 75% at D(3) dopamine receptor [2], 18% at D(2) dopamine receptor [3] and 4% on Histamine H3 receptor. Besides, the Ki in assay [5] was found to be 20 nM; on D(3) dopamine receptor [4], 133 nM.

Turning to `O=S(=O)(c1ccccc1)N1CCc2ccc(C3CCN(C4CCC4)CC3)cc21`, the inhibition in assay [1] amounted to 62%; on D(3) dopamine receptor [2], 59%; on D(2) dopamine receptor [3], 29%; at Histamine H3 receptor it was 1%. Moreover, the Ki in assay [5] came out at 527 nM; at D(3) dopamine receptor [4], 362 nM. The Ratio Ki in the assay filed under Homo sapiens is < 10.

Take `O=S(=O)(c1ccccc1)N1CCc2c(N3CCNCC3)cccc21`: the inhibition is 97% in assay [1], 40% on D(3) dopamine receptor [2], 22% on D(2) dopamine receptor [3] and 3% at Histamine H3 receptor. For the same compound, the Ki in assay [5] was found to be 118 nM.

Consider `CCCN1CCN(c2cccc3c2CCN3S(=O)(=O)c2ccccc2)CC1`, for which the inhibition in assay [1] was determined as 78%; on D(3) dopamine receptor [2], 97%; at D(2) dopamine receptor [3], 87%; on Histamine H3 receptor, 27%. For the same compound, the Ki in assay [5] is 74 nM; on D(3) dopamine receptor [4], 17 nM; on D(2) dopamine receptor [6], 42 nM. In the assay listed under Homo sapiens, the Ratio Ki is 1.5.

With `O=S(=O)(c1ccccc1)N1Cc2ccc(N3CCNCC3)cc2C1`, the inhibition in assay [1] was 46%; at D(3) dopamine receptor [2] it was 37%; on D(2) dopamine receptor [3], 14%; on Histamine H3 receptor, 7%. The Ki in assay [5] was 289 nM.

Consider `CN1CCN(c2cccc3c2CN(S(=O)(=O)c2ccccc2)C3)CC1`, for which the inhibition was determined as 100% in assay [1], 85% on D(3) dopamine receptor [2], 43% at D(2) dopamine receptor [3] and 19% at Histamine H3 receptor. For the same compound, the Ki in assay [5] worked out at 2.6 nM; on D(3) dopamine receptor [4] it was 160 nM.

Regarding `CCCN1CCN(c2ccc3c(c2)CN(S(=O)(=O)c2ccccc2)C3)CC1`, the values for the inhibition on D(3) dopamine receptor [2], on D(2) dopamine receptor [3] and on Histamine H3 receptor were 85%, 29% and 38%, respectively. Moreover, the Ki at D(3) dopamine receptor [4] was found to be 103 nM.

Consider `O=S(=O)(c1ccccc1)N1CCc2c(C3CCNCC3)cccc21`, for which the inhibition in assay [1] is 83%; on D(3) dopamine receptor [2], 6%; on D(2) dopamine receptor [3], 10%; on Histamine H3 receptor it was -5%. The Ki in assay [5] was 13 nM.

For `CCN1CCC(c2ccc3c(c2)N(S(=O)(=O)c2ccccc2)CC3)CC1`, the inhibition in assay [1] was found to be 95%; on D(3) dopamine receptor [2], 86%; on D(2) dopamine receptor [3] it was 39%; on Histamine H3 receptor, 11%. The Ki is 23 nM in assay [5] and 95 nM at D(3) dopamine receptor [4]. In addition, in the assay filed under Homo sapiens, the Ratio Ki was < 10.

As for `CCCN1CCN(c2ccc3c(c2)CCN3S(=O)(=O)c2ccccc2)CC1`, the inhibition in assay [1] was 38%; on D(3) dopamine receptor [2] it was 98%; at D(2) dopamine receptor [3], 59%; on Histamine H3 receptor, 39%. The figures for the Ki on D(3) dopamine receptor [4] and on D(2) dopamine receptor [6] were 24 nM and 245 nM, respectively.

For `CN1CCN(c2ccc3c(c2)CN(S(=O)(=O)c2ccccc2)C3)CC1`, the inhibition in assay [1] was 29%; on D(3) dopamine receptor [2], 41%; on D(2) dopamine receptor [3], 11%; at Histamine H3 receptor it was 21%.

As to `CCCN1CCC(c2cccc3c2CCN3S(=O)(=O)c2ccccc2)CC1`, the inhibition was 45% in assay [1], 56% at D(3) dopamine receptor [2], 38% on D(2) dopamine receptor [3] and -5% at Histamine H3 receptor. The Ki in assay [5] was 1030 nM; at D(3) dopamine receptor [4], 383 nM.

Turning to `CN1CCC(c2ccc3c(c2)N(S(=O)(=O)c2ccccc2)CC3)CC1`, the inhibition was found to be 93% in assay [1], 75% on D(3) dopamine receptor [2], 34% at D(2) dopamine receptor [3] and 3% on Histamine H3 receptor. Also, the Ki is 25 nM in assay [5] and 121 nM on D(3) dopamine receptor [4]. Further, in the assay filed under Homo sapiens, the Ratio Ki is < 10.

On to `CCCN1CCC(c2cccc3c2CN(S(=O)(=O)c2ccccc2)C3)CC1`, for which the inhibition in assay [1] worked out at 92%; at D(3) dopamine receptor [2], 55%; at D(2) dopamine receptor [3], 40%; on Histamine H3 receptor, 4%. The figures for the Ki (in assay [5]; on D(3) dopamine receptor [4]) were 21 nM and 212 nM, respectively.

`O=S(=O)(c1ccccc1)N1Cc2cccc(N3CCNCC3)c2C1`: the inhibition in assay [1] was 98%; at D(3) dopamine receptor [2], 61%; at D(2) dopamine receptor [3], 29%; on Histamine H3 receptor, 11%. Besides, the Ki in assay [5] was 1.9 nM; on D(3) dopamine receptor [4], 505 nM.

With `O=S(=O)(c1ccccc1)N1CCc2cc(C3CCNCC3)ccc21`, the inhibition in assay [1] came out at 74%; at D(3) dopamine receptor [2], 20%; on D(2) dopamine receptor [3], 13%; on Histamine H3 receptor, 2%. In addition, the Ki in assay [5] amounted to 175 nM.

`CCN1CCC(c2cccc3c2CN(S(=O)(=O)c2ccccc2)C3)CC1`: the inhibition in assay [1] was 98%; on D(3) dopamine receptor [2], 53%; on D(2) dopamine receptor [3] it was 27%; on Histamine H3 receptor, 3%. Moreover, the Ki in assay [5] is 2.3 nM; on D(3) dopamine receptor [4], 562 nM.

Consider `CCCN1CCC(c2ccc3c(c2)CN(S(=O)(=O)c2ccccc2)C3)CC1`, for which the inhibition in assay [1] was 26%; on D(3) dopamine receptor [2], 48%; at D(2) dopamine receptor [3] it was 16%; at Histamine H3 receptor, 27%. Moreover, the Ki on D(3) dopamine receptor [4] turned out to be 712 nM.

As to `CCCN1CCN(c2cccc3c2CN(S(=O)(=O)c2ccccc2)C3)CC1`, the inhibition was determined as 98% in assay [1], 97% at D(3) dopamine receptor [2], 64% at D(2) dopamine receptor [3] and 12% on Histamine H3 receptor. In addition, the figures for the Ki (in assay [5]; on D(3) dopamine receptor [4]; on D(2) dopamine receptor [6]) were 4.6 nM, 27 nM and 180 nM, respectively.

Take `O=S(=O)(c1ccccc1)N1CCc2cc(C3CCN(C4CCC4)CC3)ccc21`: the inhibition is -9% in assay [1], 48% at D(3) dopamine receptor [2], 22% at D(2) dopamine receptor [3] and 11% on Histamine H3 receptor. Moreover, the Ki at D(3) dopamine receptor [4] came out at 1670 nM.

Regarding `CN1CCC(c2ccc3c(c2)CN(S(=O)(=O)c2ccccc2)C3)CC1`, the inhibition in assay [1] came to 56%; on D(3) dopamine receptor [2], 34%; at D(2) dopamine receptor [3], 19%; on Histamine H3 receptor, 41%. Also, the Ki in assay [5] amounted to 556 nM.

Consider `O=S(=O)(c1ccccc1)N1Cc2ccc(C3CCN(C4CCC4)CC3)cc2C1`, for which the inhibition in assay [1] is -10%; at D(3) dopamine receptor [2], 24%; at D(2) dopamine receptor [3], 25%; at Histamine H3 receptor, 28%.

Take `O=S(=O)(c1ccccc1)N1Cc2cccc(N3CCN(C4CCC4)CC3)c2C1`: the inhibition in assay [1] was determined as 98%; on D(3) dopamine receptor [2] it was 72%; at D(2) dopamine receptor [3], 47%; at Histamine H3 receptor, 16%. Also, the Ki in assay [5] is 4.8 nM; on D(3) dopamine receptor [4] it was 525 nM; on D(2) dopamine receptor [6] it was 1590 nM.

For the compound `O=S(=O)(c1ccccc1)N1CCc2ccc(C3CCNCC3)cc21`, the inhibition in assay [1] was 91%; on D(3) dopamine receptor [2], 49%; on D(2) dopamine receptor [3] it was 27%; at Histamine H3 receptor, -6%. Further, the Ki was 2.7 nM in assay [5] and 517 nM at D(3) dopamine receptor [4]. Besides, the Ratio Ki in the assay listed under Homo sapiens is < 10.

Consider `CN1CCN(c2ccc3c(c2)CCN3S(=O)(=O)c2ccccc2)CC1`, for which the inhibition in assay [1] was 84%; at D(3) dopamine receptor [2], 85%; at D(2) dopamine receptor [3] it was 18%; on Histamine H3 receptor, 35%. Further, the values for the Ki (in assay [5]; on D(3) dopamine receptor [4]) were 440 nM and 108 nM, respectively.

`O=S(=O)(c1ccccc1)N1Cc2cccc(C3CCN(C4CCC4)CC3)c2C1`: the inhibition in assay [1] is 91%; on D(3) dopamine receptor [2], -5%; on D(2) dopamine receptor [3] it was 49%; on Histamine H3 receptor, 13%. The results for the Ki (in assay [5]; on D(2) dopamine receptor [6]) were 42 nM and 1830 nM, respectively.

Take `O=S(=O)(c1ccccc1)N1CCc2ccc(N3CCNCC3)cc21`: the inhibition was found to be 95% in assay [1], 58% at D(3) dopamine receptor [2], 32% on D(2) dopamine receptor [3] and 4% on Histamine H3 receptor. The Ki in assay [5] stood at 12 nM; on D(3) dopamine receptor [4], 330 nM. Besides, in the assay listed under Homo sapiens, the Ratio Ki is < 10.

For `CCN1CCN(c2cccc3c2CN(S(=O)(=O)c2ccccc2)C3)CC1`, the inhibition turned out to be 98% in assay [1], 92% at D(3) dopamine receptor [2], 55% at D(2) dopamine receptor [3] and 17% at Histamine H3 receptor. The inhibitory constant (Ki) was 28 nM in assay [5], 73 nM on D(3) dopamine receptor [4] and 310 nM at D(2) dopamine receptor [6].

Regarding `O=S(=O)(c1ccccc1)N1CCc2cc(N3CCN(C4CCC4)CC3)ccc21`, the inhibition in assay [1] was determined as 28%; at D(3) dopamine receptor [2], 68%; on D(2) dopamine receptor [3] it was 24%; at Histamine H3 receptor, 36%. In addition, the Ki at D(3) dopamine receptor [4] stood at 208 nM.

A word on the inhibition: it is the change of the read-out against control, counted positive when it falls. As usually defined, the Ki is a measure of affinity in units of concentration, obtained from inhibition or displacement.
